In US20020002277A1, “Inhibitors of platelet activation and recruitment” (priority 1998, published 2002):

B1: Abciximab: platelet-specific chimeric antibody, glycoprotein IIb/IIIa antagonist (trade name ReoPro) (antibody, chains of the INN, looked up, V domains shown)
VH: EVQLQQSGTVLARPGASVKMSCEASGYTFTNYWMHWVKQRPGQGLEWIGAIYPGNSDTSYIQKFKGKAKLTAVTSTTSVYMELSSLTNEDSAVYYCTLYDGYYVFAYWGQGTLVTVSA
VL: EIVLTQSPVTLSVTPGDSVSLSCRASRDISNNLHWFQQTSHESPRLLIKYASQSMSGIPSRFSGSGSGTDFTLSINSVETEDFGMYFCQQTNSWPYTFGGGTKLEIK
modifications: Fab
B2: pIL2LTrim1: huIL2 leader joined to solCD39 with an intervening alanine residue (SEQ ID NO:27) (protein)
chain: MALWIDRMQLLSCIALSLALVTNSATQNKALPENVKYGIVLDAGSSHTSLYIYKWPAEKENDTGVVHQVEECRVKGPGISKFVQKVNEIGIYLTDCMERAREVIPRSQHQETPVYLGATAGMRLLRMESEELADRVLDVVERSLSNYPFDFQGARIITGQEEGAYGWITINYLLGKFSQKTRWFSIVPYETNNQETFGALDLGGASTQVTFVPQNQTIESPDNALQFRLYGKDYNVYTHSFLCYGKDQALWQKLAKDIQVASNEILRDPCFHPGYKKVVNVSDLYKTPCTKRFEMTLPFQQFEIQGIGNYQQCHQSILELFNTSYCPYSQCAFNGIFLPPLQGDFGAFSAFYFVMKFLNLTSEKVSQEKVTEMMKKFCAQPWEEIKTSYAGVKEKYLSEYCFSGTYILSLLLQGYHFTADSWEHIHFIGKIQGSDAGWTLGYMLNLTNMIPAEQPLSTPLSHST
B3: S218A mutant: CD39 mutant, Serine218 replaced with alanine (protein, UniProt P49961 1-510, looked up, variant S218A)
Ectonucleoside triphosphate …: MEDTKESNVKTFCSKNILAILGFSSIIAVIALLAVGLTQNKALPENVKYGIVLDAGSSHTSLYIYKWPAEKENDTGVVHQVEECRVKGPGISKFVQKVNEIGIYLTDCMERAREVIPRSQHQETPVYLGATAGMRLLRMESEELADRVLDVVERSLSNYPFDFQGARIITGQEEGAYGWITINYLLGKFSQKTRWFSIVPYETNNQETFGALDLGGAATQVTFVPQNQTIESPDNALQFRLYGKDYNVYTHSFLCYGKDQALWQKLAKDIQVASNEILRDPCFHPGYKKVVNVSDLYKTPCTKRFEMTLPFQQFEIQGIGNYQQCHQSILELFNTSYCPYSQCAFNGIFLPPLQGDFGAFSAFYFVMKFLNLTSEKVSQEKVTEMMKKFCAQPWEEIKTSYAGVKEKYLSEYCFSGTYILSLLLQGYHFTADSWEHIHFIGKIQGSDAGWTLGYMLNLTNMIPAEQPLSTPLSHSTYVFLMVLFSLVLFTVAIIGLLIFHKPSYFWKDMV
B4: pIL2LSolCD39: untagged soluble human CD39 with huIL2 leader, 12 mature IL2 residues and three amino acid linker (SEQ ID NO:7) (protein)
chain: MALWIDRMQLLSCIALSLALVTNSAPTSSSTKKTQLTSSTQNKALPENVKYGIVLDAGSSHTSLYIYKWPAEKENDTGVVHQVEECRVKGPGISKFVQKVNEIGIYLTDCMERAREVIPRSQHQETPVYLGATAGMRLLRMESEELADRVLDVVERSLSNYPFDFQGARIITGQEEGAYGWITINYLLGKFSQKTRWFSIVPYETNNQETFGALDLGGASTQVTFVPQNQTIESPDNALQFRLYGKDYNVYTHSFLCYGKDQALWQKLAKDIQVASNEILRDPCFHPGYKKVVNVSDLYKTPCTKRFEMTLPFQQFEIQGIGNYQQCHQSILELFNTSYCPYSQCAFNGIFLPPLQGDFGAFSAFYFVMKFLNLTSEKVSQEKVTEMMKKFCAQPWEEIKTSYAGVKEKYLSEYCFSGTYILSLLLQGYHFTADSWEHIHFIGKIQGSDAGWTLGYMLNLTNMIPAEQPLSTPLSHST
B5: pIL2LTrim2: huIL2 leader with an intervening Ala-Ser-Ser linker preceding solCD39 (protein)
chain: TQNKALPENVKYGIVLDAGSSHTSLYIYKWPAEKENDTGVVHQVEECRVKGPGISKFVQKVNEIGIYLTDCMERAREVIPRSQHQETPVYLGATAGMRLLRMESEELADRVLDVVERSLSNYPFDFQGARIITGQEEGAYGWITINYLLGKFSQKTRWFSIVPYETNNQETFGALDLGGASTQVTFVPQNQTIESPDNALQFRLYGKDYNVYTHSFLCYGKDQALWQKLAKDIQVASNEILRDPCFHPGYKKVVNVSDLYKTPCTKRFEMTLPFQQFEIQGIGNYQQCHQSILELFNTSYCPYSQCAFNGIFLPPLQGDFGAFSAFYFVMKFLNLTSEKVSQEKVTEMMKKFCAQPWEEIKTSYAGVKEKYLSEYCFSGTYILSLLLQGYHFTADSWEHIHFIGKIQGSDAGWTLGYMLNLTNMIPAEQPLSTPLSHST
modifications: left off: small tags and cut ends

Key:
[1] = tested on: murine platelets; experiment: Ex vivo aggregation of murine platelets after treatment; format: in vivo, C57BL/6J mice; conditions: PRP 1 hour after solCD39 4 mg/kg or aspirin 5 mg/kg
Description: C57BL/6J mice (6-8 wk) were obtained from Jackson Laboratories (Bar Harbor, Me.). […] 80 μL of 3.8% trisodium citrate was added to each mL of blood. […] The PRP contained 400-700×10^3 platelets per μL. All experiments were completed within 2 hours of blood collection. PRP (200 μL) was preincubated, for 3 min. at 37° C., with 100 μL Tris-buffered saline buffer ([…], 5 mM glucose, pH 7.4) in an aggregometer cuvette (Lumiaggregometer; Chrono-Log, Havertown, Pa.), and the platelet agonists ADP, collagen, or sodium arachidonate were added at the final concentrations indicated.

[2] = tested on: platelets; experiment: Ex vivo additive inhibition of platelet aggregation in platelet rich plasma from patients; format: cell-based, human; conditions: PRP from patients receiving the drug (clopidogrel, ticlopidine, abciximab groups also received aspirin)
Description: Each group consisted of three to six patients. […] SoICD39 (10 μg/ml or 100 μg/ml) was then added and the additional inhibition of platelet activation (over baseline, in response to the platelet agonists) was measured in each of the five groups.

[3] = Murine model of stroke (middle cerebral artery occlusion); format: in vivo, C57BL/6J mice
Description: Anesthetized mice were maintained at 37±2° C. during and for 90 min following surgery. A midline neck incision was made and the right carotid artery exposed. Middle cerebral artery occlusion was accomplished by advancing a 13-mm heat-blunt tipped 6-0 nylon suture via an arteriotomy in the external carotid stump. The external carotid artery was cauterized to secure hemostasis, and arterial flow re-established. […] Surgical staples were used for wound closure.

[4] = Phosphate release assay for ATPase activity; format: biochemical; conditions: for Activity (pmol ATP/min/μg) × 10^3: specific activity based on ELISA concentration, COS-1 1x supernatant, 10 cm plates, 5 days; for CPM × 10^3 (net counts), ATPase activity in CM: 5 days (Table 3)
Description: This example describes an ATPase assay that may be used to track enzyme activity. Samples (approximately 100 μl of either concentrated CM or purified polypeptide) are combined with 20 μl of 10X assay buffer (200 mM HEPES, 1.2 M NaCl, 50 mM KCl, 15 mM CaCl2, 15 mM MgCl2 and 3 mM ATP) and sterile water is added to a final volume of 200 μl. Radiolabeled ATP (0.8 μCi γ [^32P] ATP; Amersham, Arlington Heights, Ill.) is added and the mixture incubated for 20 minutes at 37° C. Stop mix (0.5 ml of 20% activated charcoal/1 M HCl) is added and the reaction is placed on ice for 10 minutes. After centrifugation (14K rpm for 10 minutes), the supernatant is assayed for free ^32P using a scintillation counter. Data are expressed as raw counts or net counts, or as picomoles of ATP degraded per minute.
The transfections were repeated and the CM (10, 20 and 30 μL, unconcentrated) was assayed essentially as described in Example 7. […] ATPase levels in CM from COS-1 cells transfected with pIL2LFlagSolCD39 increased with time in culture over at least 4 days post-transfection.
To determine whether activity was affected by removal of the N-terminal FLAG® tag, COS-1 cells were transfected with pIL2LFlagSolCD39 and pIL2LSolCD39 and supernatants (sups) were harvested after 5 days. Samples of 10, 20 and 30 μL of 1x sups were assayed for ATPase activity as described in Example 7.
The expression of Trim1 and Trim2 constructs was analyzed in COS-1 cells cultured in 10 cm plates. After 5 days of incubation, 1x supernatants were examined via ELISA (using anti-CD39) and the phosphate-release assay described in Example 7. […] Expression levels, however, appeared to be reduced 3-4 fold.

[5] = Enzymatic (ATPase and ADPase) activity of site-directed CD39 mutants; format: biochemical; conditions: alanine replacement mutant
Description: Mutants were assayed for enzymatic (ATPase and ADPase) and platelet inhibitory (dose-dependent inhibition of platelet aggregation) activities. For one series of mutants, residues within the conserved apyrase regions were replaced with alanine.

Molecule | Platelet aggregation, baseline ([2]; agonist ADP) [arbitrary units] | Platelet aggregation, baseline ([2]; agonist Collagen) [arbitrary units] | Platelet aggregation, baseline ([2]; agonist TRAP) [arbitrary units] | Activity (pmol ATP/min/μg) × 10^3 [4] [pmol ATP/min/μg × 10^3] | further results
CC(=O)Oc1ccccc1C(=O)O [aspirin, acetylsalicylic acid] | 69 ± 5 | 62 ± 8 | 66 ± 6 | – | ex vivo platelet aggregation, collagen ([1]; 2.5 μg/ml collagen): strongly aggregated; ex vivo platelet aggregation, ADP ([1]; 10 μM ADP): strongly aggregated; ex vivo platelet aggregation, arachidonate ([1]; 0.1 mM sodium arachidonate): only blocked platelet reactivity to arachidonate; postischemic cerebral blood flow ([3]; 24 hours after stroke induction): no improvement was seen in postischemic cerebral blood flow; intracerebral hemorrhage following stroke ([3]; measured spectrophotometrically, any dose of solCD39 tested, aspirin 5 mg/kg): increased intracerebral hemorrhage; cerebral infarct volume ([3]; preoperative administration, solCD39 4 & 8 mg/kg, aspirin 5 mg/kg): tendency to decrease cerebral infarct volume, although this effect was not statistically significant
COC(=O)[C@H](c1ccccc1Cl)N1CCc2sccc2C1 [Clopidogrel, clopidogrel] | 58 ± 6 | 57 ± 9 | 51 ± 2 | – | –
B1 | 0 ± 0 | 0 ± 0 | 46 ± 6 | – | –
B2 | – | – | – | 8.38 | –
B3 | – | – | – | – | ADPase activity retained [5]: less than 10%
B4 | – | – | – | 5.67 | CPM × 10^3 (net counts), ATPase activity in CM ([4]; 10 μL 1x COS-1 supernatant): 20.1 CPM × 10^3; CPM × 10^3 (net counts), ATPase activity in CM ([4]; 20 μL 1x COS-1 supernatant): 36.0 CPM × 10^3; CPM × 10^3 (net counts), ATPase activity in CM ([4]; 30 μL 1x COS-1 supernatant): 51.0 CPM × 10^3
B5 | – | – | – | 6.67 | –
